Measured values reported in PMC8921294, “Inhibition of mitochondrial LonP1 protease by allosteric blockade of ATP binding and hydrolysis via CDDO and its derivatives” (The Journal of Biological Chemistry, 2022).
Residue numbers refer to the chain shown, from its start.

Experiments:
LonP1 F547A = target: T1, LonP1 F547A (Homo sapiens, UniProt P36776, F547A); test: Endpoint ATPase assay, LonP1 F547A; assay type: biochemical
T1 construct: hexa-histidine (N); made in house; host or cells: Rosetta 2 E. coli
T1 sequence (P36776 68-959 F547A): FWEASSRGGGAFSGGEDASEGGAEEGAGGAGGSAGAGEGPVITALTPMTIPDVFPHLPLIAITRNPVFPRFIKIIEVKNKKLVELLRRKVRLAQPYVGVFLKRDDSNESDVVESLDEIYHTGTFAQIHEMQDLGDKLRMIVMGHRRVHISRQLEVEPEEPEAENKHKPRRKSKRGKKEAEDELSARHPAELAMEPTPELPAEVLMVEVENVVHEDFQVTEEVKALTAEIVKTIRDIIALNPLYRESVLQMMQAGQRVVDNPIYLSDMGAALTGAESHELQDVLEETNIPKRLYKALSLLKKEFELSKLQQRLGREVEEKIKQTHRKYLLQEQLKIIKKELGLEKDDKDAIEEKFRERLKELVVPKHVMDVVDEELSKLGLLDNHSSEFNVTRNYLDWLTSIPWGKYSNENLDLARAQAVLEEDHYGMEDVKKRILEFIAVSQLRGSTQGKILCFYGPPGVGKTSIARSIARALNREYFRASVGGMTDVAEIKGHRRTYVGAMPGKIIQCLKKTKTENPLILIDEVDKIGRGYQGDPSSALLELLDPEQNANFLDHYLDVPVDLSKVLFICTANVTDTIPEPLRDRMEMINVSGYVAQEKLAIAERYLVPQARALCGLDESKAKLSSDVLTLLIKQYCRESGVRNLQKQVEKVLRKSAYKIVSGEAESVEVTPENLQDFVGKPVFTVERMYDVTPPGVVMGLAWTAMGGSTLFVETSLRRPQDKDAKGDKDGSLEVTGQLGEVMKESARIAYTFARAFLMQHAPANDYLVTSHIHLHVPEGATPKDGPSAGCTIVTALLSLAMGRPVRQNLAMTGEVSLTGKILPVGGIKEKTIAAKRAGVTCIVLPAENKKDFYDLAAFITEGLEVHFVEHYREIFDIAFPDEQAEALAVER
Procedure: (§1) Human mitochondrial LonP1 and mutants lacking the predicted mitochondrial targeting sequence were fused to an N-terminal hexa-histidine affinity tag, expressed in Rosetta 2 E. Coli, and purified using a nickel agarose column as previously described ([72]) and protein concentration and buffer exchange carried out using Amicon Ultra centrifugal filtration. LonP1 mutant constructs were obtained from the PCR-based QuikChange Site-Directed Mutagenesis Kit.
(§2) ADP-Glo (Promega) assays were performed according to the manufacturer's protocols. Purified wild-type or mutant LonP1 (400 nM monomer), the 26S proteasome (3 nM), or no enzyme controls were preincubated in 96-well plates (60 min, 25 °C) with ten different concentrations of CDDO and its derivatives, TP-82, enoxolone (5 μM) or DMSO vehicle control in buffer (40 mM Tris-HCl (pH 7.5), 20 mM MgCl2, 0.1 mg/ml BSA and 5% DMSO). The 26S and 20S proteasome were also assayed at 0, 0.75, 1.5, 3, 6, and 12 nM in the absence of CDDO derivatives. […] Assay reagents were used to quench further ATPase activity and generate luminescence signals proportional to the concentration of ADP formed. Background (no enzyme control) luminescence values were subtracted, and resultant values were reported as a percentage of the no drug control (100%). […]

LonP1 C576S = target: T2, LonP1 C576S (Homo sapiens, UniProt P36776, C576S); test: Endpoint ATPase assay, LonP1 C576S; assay type: biochemical
T2 construct: hexa-histidine (N); made in house; host or cells: Rosetta 2 E. coli
T2 sequence (P36776 68-959 C576S): T1 sequence (P36776 68-959 F547A) with A480F, C509S
Procedure: as §1, §2

CC1(C)CC[C@]2(C(=O)O)CC[C@]3(C)[C@H](C(=O)C=C4[C@@]5(C)C=C(C#N)C(=O)C(C)(C)[C@@H]5CC[C@]43C)[C@@H]2C1 [CDDO, 2-cyano-3,12-dioxooleana-1,9(11)-dien-28-oic acid]
Fold increase in inhibition compared with WT (LonP1 F547A): 2.4 | IC50 (LonP1 F547A; end-point ATPase assay, read-out: CDDO IC50): 5.9 ± 0.6 µM | Fold increase in inhibition compared with WT (LonP1 C576S): 1.2 | IC50 (LonP1 C576S; end-point ATPase assay, N = 1, read-out: CDDO IC50): 11.9 µM
